In patent US20220323402A1, “TREATMENT, AMELIORATION OR PREVENTION OF A VIRAL INFECTION” (priority 2019, published 2022):

Experiments:
ZIKV = test: qPCR of ZIKV RNA in HepG2 cells treated before, during or after infection (viral entry step); format: cell-based, Zika virus; settings: HepG2, moi=3, pretreatment, adsorption or internalization, qPCR 2 hours after infection; FIG. 17
Procedure: FIG. 17: Q-PCR quantification of ZIKV RNA in HepG2 cells treated with CH223191 or DMSO (vehicle) before infection, during infection, or after the infection with ZIKV (moi=3). 2 h p.i., cells were harvested for RNA extraction and qPCR analysis to determine the level of ZIKV RNA. Data represent the mean+s.e.m. from three independent experiments. P values were determined by Student's t-test.
To investigate whether AHR inhibition interferes with the viral entry step, we treated HepG2 cells with CH223191 at different early time points of ZIKV infection (pretreatment before viral entry, during viral adsorption and during virus internalization) and quantified ZIKV by qPCR 2 hours after infection. We detected no effect of CH223191 at these early timepoints during ZIKV infection as determined by qPCR, showing that AHR contributes to later stages of ZIKV replication (FIG. 17).
RNA was extracted using the RNAeasy kit (Qiagen). cDNA was synthesized using the High-Capacity cDNA Reverse Transcription kit (Applied Biosystems) and qPCR was performed using TaqMan Fast Advanced Master Mix (Applied Biosystems). Gene expression was normalized to GAPDH. […] RNA pellets were resuspended in RNase-free water and quantified by spectrophotometry (NanoDrop—Thermo Scientific) and stored at −80° C. […] Quantification was compared with threshold cycle (Ct) value with a ZIKV plasmid standard curve.

Pml promoter = test: ChIP analysis of AHR and NF-κB binding sites in the Pml promoter, ZIKV-infected HepG2 cells; format: cell-based, human; settings: 48 h p.i., FIGS. 26A-26D
Procedure: FIGS. 26A-26D: ChIP analysis of AHR (FIGS. 26A-26C) and NF-KB (FIG. 26D) binding sites in the Pml promoter. 48 h p.i. cells were fixed and ChIP was performed using AHR and NF-KB-specific antibodies or non-specific IgG. Data are mean+s.e.m. and are representative of two independent experiments.
FIG. 27: ChIP analysis of AHR binding to site 2 in Pml promoter. 48 h p.i. cells were fixed and ChIP was performed using AHR and NF-KB-specific antibodies or non-specific IgG. Data are mean+s.e.m. and are representative of two independent experiments
HepG2 cells were mock-infected or infected with ZIKV. 48 h p.i. protein-DNA complexes were cross-linked using 1% paraformaldehyde and lysed with 350 μl lysis buffer (1% SDS, 10 mM EDTA, 50 mM Tris-HCl, pH 8.1 and 1× protease inhibitor cocktail). Chromatin was sheared by sonication, supernatants were collected after centrifugation and diluted in ChIP incubation buffer (1% Triton X-100, 2 mM EDTA, 150 mM NaCl, 20 mM Tris-HCl, pH 8). 5 μg of antibody (anti-AHR or anti-NF-κB p65) was prebound to protein A- and protein G-Dynal magnetic beads (Invitrogen, USA) for 6 h with rotation at 4° C., washed three times with ice-cold 1% BSA in PBS, and finally added to the diluted chromatin. […] DNA fragments were purified with a QIAquick DNA purification kit (Qiagen, USA) and analyzed using the SYBR Green real-time PCR kit (Takara Bio Inc., USA). […]

Cc1ccccc1/N=N/c1ccc(NC(=O)c2ccnn2C)c(C)c1 [CH223191, 2-Methyl-2H-pyrazole-3-carboxylic Acid (2-methyl-4-o-tolylazo-phenyl)-amide]
effect on ZIKV RNA at early timepoints of infection (ZIKV): no effect | AHR recruitment to its responsive elements in the Pml promoter (Pml promoter): decreased | recruitment of NF-κB to its responsive element in the Pml promoter (Pml promoter): increased
